According to patent US11976083B2, “Inhibitors of peptidylarginine deiminases” (Gilead Sciences, Inc., priority 2020, dated 2024):

Molecular target: T1, human PAD4 (Homo sapiens, UniProt Q9UM07)
T1 construct: human PAD4 (NM_012387), A2-P663, was PCR amplified; His-SUMO (N, cleaved yes); made in house; host or cells: E. coli BL21(DE3)
Assay: In vitro PAD4 BAEE biochemical assay
Settings: BAEE substrate 3 mM, 5 nM PAD4, 2 mM calcium chloride; geometric mean of multiple experiments
Outline: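 PAD4 5 nM, CaCl2 2 mM, BAEE 3 mM final; 50 mM MOPS pH 7.6, 50 mM NaCl, 0.05% Tween-20, 2 mM DTT. Cpd + enzyme 30 min 25 °C; substrate 2 h 25 °C; EDTA stop; OPA detection 1 h. IC50 4-parameter fit.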

T1 sequence (Q9UM07 2-663): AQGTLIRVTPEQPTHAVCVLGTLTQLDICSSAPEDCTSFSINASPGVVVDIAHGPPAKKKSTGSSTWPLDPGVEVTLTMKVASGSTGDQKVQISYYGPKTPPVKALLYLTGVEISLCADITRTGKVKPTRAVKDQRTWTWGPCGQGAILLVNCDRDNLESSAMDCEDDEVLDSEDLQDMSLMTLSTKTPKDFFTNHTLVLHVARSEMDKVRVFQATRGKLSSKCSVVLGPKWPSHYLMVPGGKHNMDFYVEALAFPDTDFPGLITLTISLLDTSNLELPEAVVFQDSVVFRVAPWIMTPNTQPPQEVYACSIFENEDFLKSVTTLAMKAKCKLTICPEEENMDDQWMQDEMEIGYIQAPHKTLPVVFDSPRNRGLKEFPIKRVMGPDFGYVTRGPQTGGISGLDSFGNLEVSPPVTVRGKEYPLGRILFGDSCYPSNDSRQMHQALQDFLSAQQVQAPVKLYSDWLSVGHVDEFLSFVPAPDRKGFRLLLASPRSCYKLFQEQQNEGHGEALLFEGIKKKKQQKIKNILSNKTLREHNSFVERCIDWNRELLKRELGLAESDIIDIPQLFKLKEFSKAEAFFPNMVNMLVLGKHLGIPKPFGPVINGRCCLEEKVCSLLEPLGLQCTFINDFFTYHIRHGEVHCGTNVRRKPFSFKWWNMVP

| Compound | IC50 [nM] |
| --- | --- |
| COc1cc(C(=O)N2CC[C@@H](OC)[C@@H](N)C2)cc2nc(-c3cc4ccc5nc4n3C[C@H]3C[C@H]3CCC[C@](C)(C(F)(F)F)C(=O)N[C@@H]5C)n(C)c12 [Example 370, (3~{S),5~{R},9~{S},12~{R})-18-[5-[(3~{S},4~{R})-3-amino-4-methoxy-piperidine-1-carbonyl]-7-methoxy-1-methyl-benzimidazol-2-yl]-9,12-dimethyl-9-(trifluoromethyl)-1,11,20-triazatetracyclo[11.5.2.0^{3,5}.0^{16,19}] icosa-13(20),14,16(19),17-tetraen-10-one] | 163 |
| COc1cc(C(=O)N2CC[C@@H](CO)[C@@H](N)C2)cc2nc(-c3cc4ccc5nc4n3CCCCCCC(C)(C)C(=O)N[C@@H]5C)n(C)c12 [Example 533, (11~{R})-17-[5-[(3~ {R},4~{R})-3-amino-4-(hydroxymethyl)piperidine-1-carbonyl]-7-methoxy-1-methyl-benzimidazol-2-yl]-8,8,11-trimethyl-1,10,19-triazatricyclo [10.5.2.0^{15,18}]nonadeca-12(19),13,15(18),16-tetraen-9-one] | 398 |
| COc1cc(C(=O)N2CC[C@@H](OC(F)F)[C@@H](N)C2)cc2nc(-c3cc4ccc5nc4n3CCCCCc3cc4ccccc4nc3C(=O)N[C@@H]5C)n(C)c12 [Example 732, (2~{R})-21-[5-[(3~{S},4~{R})-3-amino-4-(difluoromethoxy)piperidine-1-carbonyl]-7-methoxy-1-methyl-benzimidazol-2-yl]-2-methyl-3,6,20,26-tetrazapentacyclo[18.5.2.0^ {5,14}.0^{7,12}.0^{23,27}] heptacosa-1(26),5(14),6,8,10, 12,21,23(27),24-nonaen-4-one] | 214 |
| COc1cc(C(=O)N2CC[C@@H](OC)[C@@H](N)C2)cc2nc(-c3cc4ccc5nc4n3CCCCCc3ccccc3C(=O)N[C@@H]5C)n(C)c12 [Example 43, (2~{R})-17-[5-[(3~{S},4~{R})-3-amino-4-methoxy-piperidine-1-carbonyl]-7-methoxy-1-methyl-benzimidazol-2-yl]-2-methyl-3,16,22-triazatetracyclo[14.5.2.0^{5,10}.0^{19,23}] tricosa-1(22),5,7,9,17,19(23),20-heptaen-4-one] | 118 |
| COc1cc(C(=O)N2CCC[C@@H](N)C2)cc2nc(-c3cc4ccc5cc4n3CCCCC[C@@H]3C[C@H]3C(=O)N[C@@H]5C)n(C)c12 [Example 165, (2~{R},5~{R},7~{R})-14-[5-[(3~{R})-3-aminopiperidine-1-carbonyl]-7-methoxy-1-methyl-benzimidazol-2-yl]-2-methyl-3,13-diazatetracyclo[11.5.2.0^{5,7}.0^{16,20}] icosa-1(19),14,16(20),17-tetraen-4-one] | 235 |
| COc1cc(C(=O)N2CCC[C@@H](N)C2)cc2nc(-c3cc4ccc5nc4n3C[C@H]3C[C@H]3COC[C@@H](C)C(=O)N[C@@H]5C)n(C)c12 (single isomer, unassigned) [Example 312, (3˜{S},5˜{R},9˜{R},12˜{R})-18-[5-[(3˜{R})-3-aminopiperidine-1-carbonyl]-7-methoxy-1-methyl-benzimidazol-2-yl]-9,12-dimethyl-7-oxa-1,11,20-triazatetracyclo[11.5.2.0^{3,5}.0^{16,19}]icosa-13(20),14,16(19),17-tetraen-10-one] | 56 |
| COc1cc(C(=O)N2CC[C@@H](OC)[C@@H](N)C2)cc2nc(-c3cc4ccc5nc4n3CCCCCC[C@@](F)(c3ccccn3)C(=O)N[C@@H]5C)n(C)c12 [Example 870, (8~{R},11~{R})-17-[5-[(3~ {S),4~{R})-3-amino-4-methoxy-piperidine-1-carbonyl]-7-methoxy-1-methyl-benzimidazol-2-yl]-8-fluoro-11-methyl-8-(2-pyridyl)-1,10,19-triazatricyclo[10.5.2.0^{15,18}] nonadeca-12(19), 13,15(18),16-tetraen-9-one] | 83 |

Stronger by IC50, values ahead:

| IC50 [nM] | Compound |
| --- | --- |
| 52 | COc1cc(C(=O)N2CC[C@@H](OC)[C@@H](N)C2)cc2nc(-c3cc4ccc5nc4n3CCCCC[C@H]3C[C@]3(C(F)(F)F)C(=O)N[C@@H]5C)n(C)c12 [Example 636, (2~{R},5~{R},7~{S})-14-[5-[(3~{S},4~{R})-3-amino-4-methoxy-piperidine-1-carbonyl]-7-methoxy-1-methyl-benzimidazol-2-yl]-2-methyl-5-(trifluoromethyl)-3,13,19-triazatetracyclo [11.5.2.0^{5,7}.0^ {16,20}]icosa-1(19), 14,16(20),17-tetraen-4-one] |
| 51 | COc1cc(C(=O)N2CCC[C@@H](N)C2)cc2nc(-c3cc4ccc5nc4n3C[C@H]3C[C@@H]3CCCCC(=O)N[C@@H]5C)n(C)c12 [Example 163, (3~{S},5~{S},12~{R})-18-[5-[(3~{R})-3-aminopiperidine-1-carbonyl]-7-methoxy-1-methyl-benzimidazol-2-yl]-12-methyl-1,11,20-triazatetracyclo[11.5.2.0^{3,5}.0^{16,19}] icosa-13(20),14,16(19),17-tetraen-10-one] |
| 49 | [2H]C([2H])([2H])O[C@@H]1CCN(C(=O)c2cc(F)c3c(c2)nc(-c2cc4ccc5nc4n2CC(F)(F)CCC[C@@H]2C[C@H]2C(=O)N[C@@H]5C)n3C2CC2)C[C@@H]1N [Example 641, (2~{R},5~{R},7~{R})-14-[5-[(3~{S},4~{R})-3-amino-4-(trideuteriomethoxy)piperidine-1-carbonyl]-1-cyclopropyl-7-fluoro-benzimidazol-2-yl]-11,11-difluoro-2-methyl-3,13,19-triazatetracyclo[11.5.2.0^ {5,7}.0^{16,20}]icosa-1(19),14,16(20),17-tetraen-4-one] |
| 37 | C[C@H]1NC(=O)c2ccc(Cl)nc2CCCCCn2c(-c3nc4cc(C(=O)N5C[C@H](N)[C@@H]6CC[C@H]5C6)cc(F)c4n3[C@@H]3C[C@@H]3F)cc3ccc1nc32 [Example 452, (2~{R})-17-[(1~{R})-5-[(1~{S},4~{R},5~{R})-4-amino-2-azabicyclo[3.2.1]octane-2-carbonyl]-7-fluoro-1-[(2~{S})-2-fluorocyclopropyl]benzimidazol-2-yl]-8-chloro-2-methyl-3,9,16,22-tetrazatetracyclo[14.5.2.0^{5,10).0^{19,23}] tricosa-1(22),5(10),6,8,17,19(23),20-heptaen-4-one] |
| 17 | C[C@H]1NC(=O)c2ccc(Cl)nc2CCCCCn2c(-c3nc4cc(C(=O)N5C[C@H]6CC[C@@H]5[C@@H]6N)cc(F)c4n3C3CC3)cc3ccc1nc32 [Example 798, (2~{R})-17-[5-[(1~{R},4~{R}, 7~{R})-7-amino-2-azabicyclo [2.2.1]heptane-2-carbonyl]-1-cyclopropyl-7-fluoro-benzimidazol-2-yl]-8-chloro-2-methyl-3,9,16,22-tetrazatetracyclo[14.5.2.0^ {5,10}.0^{19,23}]tricosa-1(21),5(10),6,8,17,19,22-heptaen-4-one] |
| 16 | COc1cc(C(=O)N2CC[C@@H](O)[C@@H](N)C2)cc2nc(-c3cc4ccc5nc4n3CCCCCc3cncc(F)c3C(=O)N[C@@H]5C)n(C)c12 [Example 660, (2~{R})-17-[5-[(3~{S},4~{R})-3-amino-4-hydroxy-piperidine-1-carbonyl]-7-methoxy-1-methyl-benzimidazol-2-yl]-6-fluoro-2-methyl-3,8,16,22-tetrazatetracyclo[14.5.2.0^ {5,10}.0^{19,23}] tricosa-1(22),5,7,9,17,19(23), 20-heptaen-4-one] |
